Data reported in patent US10730874B2 (Shire Human Genetic Therapies, Inc., priority 2018, dated 2020).

These compounds were tested against human activated kallikrein enzyme (plasma kallikrein) (Homo sapiens (Human), UniProt P03952) (assay: Inhibition of human activated plasma kallikrein, fluorogenic peptide substrate assay, 500 pM enzyme format). Details: not given.
Format: biochemical
In short: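 Buffer 20 mM Tris pH 7.5, EDTA, NaCl, PEG-400, Triton X-100; 300 uM Pro-Phe-Arg-AMC; enzyme–inhibitor preincubation 30 min RT. Format one: 500 pM kallikrein, 10 min RT reaction; format two: 5 pM kallikrein, 18 h RT reaction. Fluorescence read at 460 nm (380 nm excitation).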

Chain of human activated kallikrein enzyme (plasma kallikrein) (P03952 391-638): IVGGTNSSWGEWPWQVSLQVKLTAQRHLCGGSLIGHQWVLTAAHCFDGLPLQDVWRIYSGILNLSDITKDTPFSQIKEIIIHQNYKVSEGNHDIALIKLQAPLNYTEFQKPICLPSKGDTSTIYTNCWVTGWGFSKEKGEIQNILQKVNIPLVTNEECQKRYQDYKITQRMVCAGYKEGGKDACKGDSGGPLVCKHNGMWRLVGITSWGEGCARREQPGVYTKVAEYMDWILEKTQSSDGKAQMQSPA
Chain of human activated kallikrein enzyme (plasma kallikrein) (P03952 20-390 partner): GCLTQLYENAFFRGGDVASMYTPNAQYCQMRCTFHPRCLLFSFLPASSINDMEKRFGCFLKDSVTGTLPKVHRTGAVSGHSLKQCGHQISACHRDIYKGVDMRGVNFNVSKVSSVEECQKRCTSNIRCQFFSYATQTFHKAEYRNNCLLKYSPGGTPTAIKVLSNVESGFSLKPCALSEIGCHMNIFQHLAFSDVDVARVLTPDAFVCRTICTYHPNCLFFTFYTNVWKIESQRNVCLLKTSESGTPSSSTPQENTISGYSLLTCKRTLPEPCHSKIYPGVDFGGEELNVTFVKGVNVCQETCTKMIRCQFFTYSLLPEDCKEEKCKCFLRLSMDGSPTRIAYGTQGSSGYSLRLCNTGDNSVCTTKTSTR

Row | SMILES | EC50 [nM]
1 | O=C(NCc1ncn2ccc(Br)cc12)c1cn(Cc2cn3cc(C4CC4)ccc3n2)c2cccnc12 [Example I-30, N-((7-bromoimidazo[1,5-a]pyridin-1-yl)methyl)-1-((6-cyclopropylimidazo[1,2-a]pyridin-2-yl)methyl)-1H-pyrrolo[3,2-b]pyridine-3-carboxamide] | 1 to 10

Same assay, conditions: 500 pM activated kallikrein enzyme, 300 uM Pro-Phe-Arg-7-amido-4-methylcoumarin substrate, 30 min preincubation, 10 min at RT; read-out: Primary Dose Response Assay: Average EC50

Row | SMILES | EC50 [nM]
2 | O=C(NCc1ncn2ccc(C3CC3)cc12)c1cnn(Cc2cn3cc(C4CC4)ccc3n2)c1 [Example I-48, 1-((6-cyclopropylimidazo[1,2-a]pyridin-2-yl)methyl)-N-((7-cyclopropylimidazo[1,5-a]pyridin-1-yl)methyl)-1H-pyrazole-4-carboxamide] | 100 to 2000
3 | O=C(NCc1ncn2ccc(Cl)c(F)c12)c1cn(Cc2cn3cc(C4CC4)ccc3n2)c(C(=O)O)n1 [Example I-261, 4-(((7-chloro-8-fluoroimidazo[1,5-a]pyridin-1-yl)methyl)carbamoyl)-1-((6-cyclopropylimidazo[1,2-a]pyridin-2-yl)methyl)-1H-imidazole-2-carboxylic acid] | < 1
4 | Cn1c(Cn2cc(C(=O)NCc3ncn4ccc(Cl)c(F)c34)nn2)cc2cc(C3CC3)ccc21 [Example I-233, N-((7-chloro-8-fluoroimidazo[1,5-a]pyridin-1-yl)methyl)-1-((5-cyclopropyl-1-methyl-1H-indol-2-yl)methyl)-1H-1,2,3-triazole-4-carboxamide] | 1 to 10
5 | CCc1c(Cl)ccc2nc(Cn3cc(C(=O)NCc4ncn5ccc(Cl)cc45)cn3)cn12 [Example I-34, 1-((6-chloro-5-ethylimidazo[1,2-a]pyridin-2-yl)methyl)-N-((7-chloroimidazo[1,5-a]pyridin-1-yl)methyl)-1H-pyrazole-4-carboxamide] | 10 to 100
6 | CC(C)=Cc1ccn2cc(Cn3cc(C(=O)NCc4ncn5ccc(Cl)cc45)cn3)nc2c1 [Example I-42, N-((7-chloroimidazo[1,5-a]pyridin-1-yl)methyl)-1-((7-(2-methylprop-1-en-1-yl)imidazo[1,2-a]pyridin-2-yl)methyl)-1H-pyrazole-4-carboxamide] | 10 to 100
7 | O=C(NCc1ncn2ccc(Cl)c(F)c12)c1cn(Cc2cn3cc(C4CC4)cc(-n4cccn4)c3n2)nn1 [Example I-220, N-((7-chloro-8-fluoroimidazo[1,5-a]pyridin-1-yl)methyl)-1-((6-cyclopropyl-8-(1H-pyrazol-1-yl)imidazo[1,2-a]pyridin-2-yl)methyl)-1H-1,2,3-triazole-4-carboxamide] | < 1
8 | O=C(NCc1ncn2ccc(Br)cc12)c1cnn(Cc2cn3c(F)c(C4CC4)ccc3n2)c1 [Example I-60, N-((7-bromoimidazo[1,5-a]pyridin-1-yl)methyl)-1-((6-cyclopropyl-5-fluoroimidazo[1,2-a]pyridin-2-yl)methyl)-1H-pyrazole-4-carboxamide] | < 1
9 | O=C(NCc1ncn2ccc(Cl)c(F)c12)c1cnn(Cc2cn3cc(C4CC4)cc(C4COC4)c3n2)c1 [Example I-215, N-((7-chloro-8-fluoroimidazo[1,5-a]pyridin-1-yl)methyl)-1-((6-cyclopropyl-8-(oxetan-3-yl)imidazo[1,2-a]pyridin-2-yl)methyl)-1H-pyrazole-4-carboxamide] | < 1
10 | O=C(NCc1ncn2ccc(Cl)c(F)c12)c1cn(Cc2cn3nccc(-n4cnnc4)c3n2)nn1 [Example I-294, 1-((8-(4H-1,2,4-triazol-4-yl)imidazo[1,2-b]pyridazin-2-yl)methyl)-N-((7-chloro-8-fluoroimidazo[1,5-a]pyridin-1-yl)methyl)-1H-1,2,3-triazole-4-carboxamide] | 10 to 100
11 | O=C(O)c1cn(-c2cc(C3CC3)cn3cc(Cn4cc(C(=O)NCc5ncn6ccc(Cl)c(F)c56)nn4)nc23)cn1 [Example I-226, 1-(2-((4-((7-chloro-8-fluoroimidazo[1,5-a]pyridin-1-yl)methylcarbamoyl)-1H-1,2,3-triazol-1-yl)methyl)-6-cyclopropylimidazo[1,2-a]pyridin-8-yl)-1H-imidazole-4-carboxylic acid] | < 1
12 | O=C(NCc1ncn2ccc(Cl)c(F)c12)c1cn(Cc2nc3ccc(C4CC4)cn3c2F)nn1 [Example I-240, N-((7-chloro-8-fluoroimidazo[1,5-a]pyridin-1-yl)methyl)-1-((6-cyclopropyl-3-fluoroimidazo[1,2-a]pyridin-2-yl)methyl)-1H-1,2,3-triazole-4-carboxamide] | < 1
13 | O=C(NCc1ncn2ccc(Cl)c(F)c12)c1cn(Cc2cn3ncc(C4CC4)cc3n2)nn1 [Example I-217, N-((7-chloro-8-fluoroimidazo[1,5-a]pyridin-1-yl)methyl)-1-((7-cyclopropylimidazo[1,2-b]pyridazin-2-yl)methyl)-1H-1,2,3-triazole-4-carboxamide] | 1 to 10
14 | O=C(NCc1ncn2ccc(Cl)cc12)c1cn(Cc2cn3nc(C4CC4)ccc3n2)nn1 [Example I-111, N-((7-chloroimidazo[1,5-a]pyridin-1-yl)methyl)-1-((6-cyclopropylimidazo[1,2-b]pyridazin-2-yl)methyl)-1H-1,2,3-triazole-4-carboxamide] | < 1
15 | CCOC(=O)c1nncn1-c1cc(C2CC2)cn2cc(Cn3cc(C(=O)NCc4ncn5ccc(Cl)c(F)c45)nn3)nc12 [Example I-248, ethyl 4-(2-((4-(((7-chloro-8-fluoroimidazo[1,5-a]pyridin-1-yl)methyl)carbamoyl)-1H-1,2,3-triazol-1-yl)methyl)-6-cyclopropylimidazo[1,2-a]pyridin-8-yl)-4H-1,2,4-triazole-3-carboxylate] | < 1
16 | O=C(NCc1ncn2ccc(Br)c(F)c12)c1cn(Cc2cn3nc(C4CC4)ccc3n2)nn1 [Example I-139, N-((7-bromo-8-fluoroimidazo[1,5-a]pyridin-1-yl)methyl)-1-((6-cyclopropylimidazo[1,2-b]pyridazin-2-yl)methyl)-1H-1,2,3-triazole-4-carboxamide] | < 1
17 | C/C=C\c1ccc2nc(Cn3cc(C(=O)NCc4ncn5ccc(Cl)cc45)cn3)cn2c1 [Example I-47, (Z)—N-((7-chloroimidazo[1,5-a]pyridin-1-yl)methyl)-1-((6-(prop-1-en-1-yl)imidazo[1,2-a]pyridin-2-yl)methyl)-1H-pyrazole-4-carboxamide] | 1 to 10
18 | COC(=O)C(F)Cc1cc(C2CC2)cn2cc(Cn3cc(C(=O)NCc4ncn5ccc(Cl)c(F)c45)nn3)nc12 (stereo not drawn) [Example I-224a, methyl 3-(2-((4-(((7-chloro-8-fluoroimidazo[1,5-a]pyridin-1-yl)methyl)carbamoyl)-1H-1,2,3-triazol-1-yl)methyl)-6-cyclopropylimidazo[1,2-a]pyridin-8-yl)-2-fluoropropanoate] | < 1
19 | O=C(NCc1ncn2ccc(Br)cc12)c1cnn(Cc2cn3cc(C4CC4)cnc3n2)c1 [Example I-76, N-((7-bromoimidazo[1,5-a]pyridin-1-yl)methyl)-1-((6-cyclopropylimidazo[1,2-a]pyrimidin-2-yl)methyl)-1H-pyrazole-4-carboxamide] | < 1
20 | O=C(NCc1ncn2ccc(Cl)c(F)c12)c1cnn(Cc2ccc3nccnc3c2)c1 [Example I-293, N-((7-chloro-8-fluoroimidazo[1,5-a]pyridin-1-yl)methyl)-1-(quinoxalin-6-ylmethyl)-1H-pyrazole-4-carboxamide] | 10 to 100
21 | O=C(NCc1ncn2ccc(Cl)c(F)c12)c1cn(Cc2cn3cc(Cl)cc(C4COC4)c3n2)nn1 [Example I-187, 1-((6-chloro-8-(oxetan-3-yl)imidazo[1,2-a]pyridin-2-yl)methyl)-N-((7-chloro-8-fluoroimidazo[1,5-a]pyridin-1-yl)methyl)-1H-1,2,3-triazole-4-carboxamide] | < 1
22 | O=C(NCc1ncn2ccc(Cl)cc12)c1cnn(Cc2cn3c(Cl)c(C4CC4)ccc3n2)c1 [Example I-23, 1-((5-chloro-6-cyclopropylimidazo[1,2-a]pyridin-2-yl)methyl)-N-((7-chloroimidazo[1,5-a]pyridin-1-yl)methyl)-1H-pyrazole-4-carboxamide] | < 1
23 | O=C(NCc1ncn2ccc(Cl)c(F)c12)c1cn(Cc2nc3cc(C4CC4)ccn3n2)nn1 [Example I-178, N-((7-chloro-8-fluoroimidazo[1,5-a]pyridin-1-yl)methyl)-1-((7-cyclopropyl-[1,2,4]triazolo[1,5-a]pyridin-2-yl)methyl)-1H-1,2,3-triazole-4-carboxamide] | 10 to 100
24 | O=C(NCc1ncn2ccc(Cl)cc12)c1cnn(Cc2cn3c(CO)cccc3n2)c1 [Example I-62, N-((7-chloroimidazo[1,5-a]pyridin-1-yl)methyl)-1-((5-(hydroxymethyl)imidazo[1,2-a]pyridin-2-yl)methyl)-1H-pyrazole-4-carboxamide] | 100 to 2000
25 | O=C(NCc1ncn2ccc(Cl)c(F)c12)c1cn(Cc2nc3cc(C4CC4)cc(Cl)n3n2)nn1 [Example I-255, 1-((5-chloro-7-cyclopropyl-[1,2,4]triazolo[1,5-a]pyridin-2-yl)methyl)-N-((7-chloro-8-fluoroimidazo[1,5-a]pyridin-1-yl)methyl)-1H-1,2,3-triazole-4-carboxamide] | < 1
26 | O=C(NCc1ncn2ccc(Cl)c(F)c12)c1cn(Cc2cn3cc(C4CC4)cc(N4CCOCC4)c3n2)nn1 [Example I-173, N-((7-chloro-8-fluoroimidazo[1,5-a]pyridin-1-yl)methyl)-1-((6-cyclopropyl-8-morpholinoimidazo[1,2-a]pyridin-2-yl)methyl)-1H-1,2,3-triazole-4-carboxamide] | < 1
27 | O=C(NCc1ncn2ccc(Cl)cc12)c1cn(Cc2cn3cc(C4CC4)ccc3n2)nc1C1CC1C(=O)O (stereo not drawn) [Example I-120, 2-(4-(((7-chloroimidazo[1,5-a]pyridin-1-yl)methyl)carbamoyl)-1-((6-cyclopropylimidazo[1,2-a]pyridin-2-yl)methyl)-1H-pyrazol-3-yl)cyclopropane-1-carboxylic acid] | < 1
